This assay deals with T1, mTor (Homo sapiens, UniProt P42345).
T1 construct: purchased Millipore/Merck KGA
In words: In vitro kinase inhibition, mTor (Millipore/Merck kinases panel screening). In kind it is biochemical. The following applies: compound at 0.03 μM; scaffold drawing 7 series. The method, then:
In vitro kinase inhibition activities included Pi3k and mTor activities can be tested with Millipore/Merck KGA of Europe in their kinases panel screening. Animal antitumor activity testing can be conducted by various cancer xenograft models for a compound of formula I.
The following compounds or a pharmaceutically acceptable salt thereof, but not limited, can also be prepared similarly according to the methods described in Scheme I-Scheme II. They are also tested for the inhibitions on mTor or pi3k kinases, or tumor cell lines.
For `O=C1CCN(CC(=O)Nc2ccc(-c3ccc4ncc5c(c4c3)n(-c3ccc(Cl)c(C(F)(F)F)c3)c3nncn53)cn2)CC1` [N-(5-{16-[4-chloro-3-(trifluoromethyl)phenyl]-8,11,13,14,16-pentaazatetracyclo[8.6.0.0^2,7.0^11,15]-hexadeca-1(10),2,4,6,8,12,14-heptaen-4-yl}pyridin-2-yl)-2-(4-oxopiperidin-1-yl)acetamide], the activity at 0.03 µM came out at 57%. Still for that read-out and setting: as for `Fc1cc(-n2c3c4cc(-c5cnc6ccccc6c5)ccc4ncc3n3cnnc23)cc(C(F)(F)F)c1` [3-quinoline, 5-F, H, 16-[3-fluoro-5-(trifluoromethyl)phenyl]-4-(quinolin-3yl)-8,11,13,14,16-pentaazatetracyclo-[8.6.0.0^2,7.0^11,15]hexadeca-1(10),2,4,6,8,12,14-heptaene], the figure is -8%; as for `O=C(CN1CCC(O)CC1)Nc1ccc(-c2ccc3ncc4c(c3c2)n(-c2ccc(Cl)c(C(F)(F)F)c2)c2nncn42)cn1` [N-(5-{16-[4-chloro-3-(trifluoromethyl)phenyl]-8,11,13,14,16-pentaazatetracyclo[8.6.0.0^2,7.0^11,15]-hexadeca-1(10),2,4,6,8,12,14-heptaen-4-yl}pyridin-2-yl)-2-(4-hydroxypiperidin-1-yl)acetamide], 14%; as for `Fc1ccc(C(F)(F)F)cc1-n1c2c3cc(-c4cnc5ccccc5c4)ccc3ncc2n2cnnc12` [3-quinoline, 6-F, H, 16-[2-fluoro-5-(trifluoromethyl)phenyl]-4-(quinolin-3yl)-8,11,13,14,16-pentaazatetracyclo-[8.6.0.0^2,7.0^11,15]hexadeca-1(10),2,4,6,8,12,14-heptaene], 0%.

For the compound `FC(F)(F)c1cc(-n2c3c4cc(-c5cnc6ccccc6c5)ccc4ncc3n3cnnc23)cc(C(F)(F)F)c1` [3-quinoline, 5-CF3, H, 16-[3,5-(trifluoromethyl)phenyl]-4-(quinolin-3yl)-8,11,13,14,16-pentaazatetracyclo-[8.6.0.0^2,7.0^11,15]hexadeca-1(10),2,4,6,8,12,14-heptaene], the “mTor % activity @0.03 μM” value amounted to 0%. As for `Fc1ccc(-c2ccc3ncc4c(c3c2)n(-c2ccc(Cl)c(C(F)(F)F)c2)c2nncn42)cc1F` [3,4-Diflurophenyl, 4-Cl, H, 16-[4-chloro-3-(trifluoromethyl)phenyl]-4-(3,4-difluorophenyl)-8,11,13,14,16-pentaazatetra-cyclo-[8.6.0.0^2,7.0^11,15]hexadeca-1(10),2,4,6,8,12,14-heptaene], the “mTor % activity @0.03 μM” value is reported as 31%. The same measure, in the same setting: as for `Fc1cccc(-c2ccc3ncc4c(c3c2)n(-c2ccc(Cl)c(C(F)(F)F)c2)c2nncn42)c1` [3-Flurophenyl, 4-Cl, H], the figure is 46%.

Take `Fc1ccccc1-c1ccc2ncc3c(c2c1)n(-c1ccc(Cl)c(C(F)(F)F)c1)c1nncn31` [2-Flurophenyl, 4-Cl, H, 16-[4-chloro-3-(trifluoromethyl)phenyl]-4-(2-fluorophenyl)-8,11,13,14,16-pentaazatetracyclo-[8.6.0.0^2,7.0^11,15]hexadeca-1(10),2,4,6,8,12,14-heptaene]: the activity at 0.03 µM is 55%. Consider “12-ethyl-16-[4-fluoro-3 -(trifluoromethyl)phenyl]-4-8,11,13,14,16-pentaazatetracyclo[8.6.0.0^2,7.0^11,15]hexadeca-1(10),2,4,6,8,12,14-heptaene [3-pyridine, 4-F, CH2CH3]”, for which the “mTor % activity @0.03 μM” value came out at 73%.

With `CN(C)CC(=O)Nc1ccc(-c2ccc3ncc4c(c3c2)n(-c2ccc(Cl)c(C(F)(F)F)c2)c2nncn42)cn1` [N-(5-{16-[4-chloro-3-(trifluoromethyl)phenyl]-8,11,13,14,16-pentaazatetracyclo[8.6.0.0^2,7.0^11,15]-hexadeca-1(10),2,4,6,8,12,14-heptaen-4-yl}pyridin-2-yl)-2-(dimethylamino)acetamide], the activity at 0.03 µM worked out at 15%.

The values above are taken from patent publication US10112945B2, “Fused quinoline compunds as PI3K, mTOR inhibitors” (ADVENCHEN PHARMACEUTICALS, NANJING LTD., priority 2014, dated 2018).
